From ChEMBL document CHEMBL1201862, “PubChem BioAssay data set” (2004) come the findings set out here.

Where “and” joins values, the source holds several entries; their conditions need not be identical. Identical values can stand only once. Calls of active or inactive are those of the source.

For test [1], the target named is T1, Endoribonuclease toxin MazF (Escherichia coli K-12, UniProt P0AE70). In words: activation of MazEF endoribonuclease cleavage – biochemical, fluorescence, single-stranded RNA substrate, uHTS hits, dose response (AID 588481). Format: functional.
The target of test [2] is T1, Endoribonuclease toxin MazF. The experiment in a line: substrate-only fluorescence increase artefacts – biochemical, single-stranded RNase substrate, counter-screen for MazEF activator project, dose response (AID 588502). In kind it is functional.
Test [3] in a line: NIH-3T3 fibroblast cytotoxicity, dose response, cytotoxicity control, cell-based, fluorescence, Alamar Blue, secondary assay (AID 2327).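 Further: NIH-3T3 mouse fibroblasts cultured with fluconazole at 8 µg/mL.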 Format: functional.
A short description of test [4]: decrease of insulin promoter-GFP reporter – imaging, high-content screening, mouse beta cells (AID 1628). In kind it is functional. The note with it: MIN6.
The nature of test [5]: MIN6 cell viability loss – mouse insulinoma, cytotoxicity control, dose response (AID 2122).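 Further: confirmatory high-throughput counterscreen run to flag cytotoxic compounds.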 In kind it is functional.
Test [6] in a line: fluconazole-exposed Candida albicans growth modulators – fluorescence, retest, confirmation (AID 2467). Format: functional, cell-based.
Test [7] is described as follows: Trypanosoma cruzi growth suppression in host cells – NIH3T3 host cells, beta-gal luminescence, confirmation (AID 2044).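 Further: intracellular parasites grown in NIH/3T3 mouse fibroblasts as host cells; luminescent beta-galactosidase reporter signal from transgenic T. cruzi replicating inside host cells; inhibitors lower the luminescence signal.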 Format: functional, cell-based.
The target of test [8] is G-protein coupled receptor 55 (Homo sapiens, UniProt Q9Y2T6). In words: selective activators of receptor GPR55 – imaging, U2OS cells, beta-arrestin-GFP redistribution, primary screen (AID 1961). Format: functional.
Test [9] deals with T2, Ubiquitin-conjugating enzyme E2 N (Homo sapiens, UniProt P61088).
T2 sequence (P61088 whole entry): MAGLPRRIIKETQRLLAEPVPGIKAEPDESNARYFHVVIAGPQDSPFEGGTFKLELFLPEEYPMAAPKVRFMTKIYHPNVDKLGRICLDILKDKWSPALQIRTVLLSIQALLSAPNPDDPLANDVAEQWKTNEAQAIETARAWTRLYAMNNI
Format: functional.

The target in test [10] is T3, Microphthalmia-associated transcription factor (Homo sapiens, UniProt O75030).
T3 sequence (O75030 whole entry): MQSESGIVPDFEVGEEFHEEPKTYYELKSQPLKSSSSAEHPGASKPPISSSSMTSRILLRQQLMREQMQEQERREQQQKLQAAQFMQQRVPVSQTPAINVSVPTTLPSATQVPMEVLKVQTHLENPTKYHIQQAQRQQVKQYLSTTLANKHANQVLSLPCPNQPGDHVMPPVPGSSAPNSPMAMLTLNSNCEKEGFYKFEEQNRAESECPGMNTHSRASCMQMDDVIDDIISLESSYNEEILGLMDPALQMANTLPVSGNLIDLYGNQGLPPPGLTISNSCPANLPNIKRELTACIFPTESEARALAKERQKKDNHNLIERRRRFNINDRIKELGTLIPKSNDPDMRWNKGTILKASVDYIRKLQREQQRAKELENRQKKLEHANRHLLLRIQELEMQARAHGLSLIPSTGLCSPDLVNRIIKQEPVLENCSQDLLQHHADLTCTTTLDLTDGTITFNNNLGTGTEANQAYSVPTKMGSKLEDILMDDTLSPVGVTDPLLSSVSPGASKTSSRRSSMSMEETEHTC
In words: reducers of TRPM1 reporter luminescence, concentration series – cell-based, SK-MEL-5, cherry-picked, set 3, MITF inhibitor project, dose response (AID 493073).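 Further: SK-MEL-5 melanoma cells with luciferase driven by the MITF target TRPM1 promoter.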 Format: functional.

Test [11] concerns the target T4, X-box-binding protein 1 (Homo sapiens, UniProt P17861).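 Further: confirmatory dose-response counter-screen serving a CHOP assay.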
T4 sequence (P17861 whole entry): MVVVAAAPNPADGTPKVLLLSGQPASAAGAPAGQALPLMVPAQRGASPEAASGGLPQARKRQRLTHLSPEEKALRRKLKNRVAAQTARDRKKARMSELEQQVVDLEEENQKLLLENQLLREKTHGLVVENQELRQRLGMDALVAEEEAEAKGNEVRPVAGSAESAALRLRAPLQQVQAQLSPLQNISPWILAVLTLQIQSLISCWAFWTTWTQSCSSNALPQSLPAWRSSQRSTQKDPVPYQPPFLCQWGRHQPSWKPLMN
Format: functional, Cricetulus griseus.

The target of test [12] is T5, Apoptotic protease-activating factor 1 (Homo sapiens, UniProt O14727).
T5 sequence (O14727 whole entry): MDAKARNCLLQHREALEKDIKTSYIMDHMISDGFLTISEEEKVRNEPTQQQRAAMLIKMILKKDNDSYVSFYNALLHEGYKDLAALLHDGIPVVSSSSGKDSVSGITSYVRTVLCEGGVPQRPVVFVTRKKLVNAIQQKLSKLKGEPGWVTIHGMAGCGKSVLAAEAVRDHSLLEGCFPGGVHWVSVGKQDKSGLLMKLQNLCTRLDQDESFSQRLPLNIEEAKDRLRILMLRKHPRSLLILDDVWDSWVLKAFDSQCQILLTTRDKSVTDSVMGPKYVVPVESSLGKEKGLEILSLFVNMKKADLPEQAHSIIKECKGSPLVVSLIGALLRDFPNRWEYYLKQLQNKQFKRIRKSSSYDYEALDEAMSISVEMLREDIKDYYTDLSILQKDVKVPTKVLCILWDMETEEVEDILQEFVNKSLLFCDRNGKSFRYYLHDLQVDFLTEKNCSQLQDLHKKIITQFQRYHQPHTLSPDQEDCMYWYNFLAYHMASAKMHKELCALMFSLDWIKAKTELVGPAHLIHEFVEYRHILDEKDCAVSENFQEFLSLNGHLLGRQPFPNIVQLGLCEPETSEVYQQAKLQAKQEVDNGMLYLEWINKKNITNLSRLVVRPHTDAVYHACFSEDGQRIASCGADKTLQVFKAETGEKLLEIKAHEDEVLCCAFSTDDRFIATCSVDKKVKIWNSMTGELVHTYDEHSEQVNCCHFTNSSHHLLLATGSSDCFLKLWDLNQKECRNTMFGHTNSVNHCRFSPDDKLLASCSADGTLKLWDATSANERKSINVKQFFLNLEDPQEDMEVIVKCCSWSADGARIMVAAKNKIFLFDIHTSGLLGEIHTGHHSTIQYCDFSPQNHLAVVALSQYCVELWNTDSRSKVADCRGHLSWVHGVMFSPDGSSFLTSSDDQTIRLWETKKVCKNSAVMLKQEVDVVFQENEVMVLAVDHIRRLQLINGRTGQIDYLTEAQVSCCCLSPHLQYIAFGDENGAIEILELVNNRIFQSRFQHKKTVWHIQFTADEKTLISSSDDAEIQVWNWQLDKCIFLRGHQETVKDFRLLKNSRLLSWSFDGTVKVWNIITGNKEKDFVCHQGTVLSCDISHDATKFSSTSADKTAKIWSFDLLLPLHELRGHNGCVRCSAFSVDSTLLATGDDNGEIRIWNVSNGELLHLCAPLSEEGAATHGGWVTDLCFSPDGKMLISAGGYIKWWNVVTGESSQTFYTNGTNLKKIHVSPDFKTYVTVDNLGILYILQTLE
In kind it is functional.

Test [13] concerns INS1. In words: INS-1E survival protection against cytokine death – cell-based, luminescence, retest, dose response (AID 449756).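 Further: cell death triggered by IL-1 beta plus TNF-alpha plus IFN-gamma mixture; protective hits raise ATP signal compared with cytokine alone wells.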 In kind it is functional. The note with it: Rattus norvegicus.
The test system of test [14] is A-375. In words: proliferation inhibition in MITF-low A375 cells – cell-based, cherry-pick samples, set 2, counter-screen for MITF modulator project, dose response (AID 540335). In kind it is functional. The note with it: Homo sapiens.
Test [15] can be described thus: blockers of HIV-1 envelope-mediated cell-cell fusion – cherry-pick, dose response (AID 652057). Format: functional, cell-based.
Test [16] in a line: viability loss in CEM21 cells – cell-based, CellTiter-Glo luminescence, cherry-picked, cytotoxicity control for viral fusion inhibitor project, dose response (AID 652042).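 Further: potency for signal decrease meaning cytotoxicity.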 Format: functional.
Test [17] in a line: blockers of HIV-1 ZM109 envelope-driven cell-cell fusion – HeLa effector, CEM target cells, luciferase, cherry-pick, dose response (AID 652058).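 Further: luciferase signal from HIV-1 Env mediated cell-cell fusion of effector and target cells.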 Format: functional, cell-based.
Test [18] is described as follows: off-target signal loss in HeLa-CEM21 co-culture – HeLa F-luc CTL cells, cherry-picked, counter-screen for HIV-1 Env fusion inhibitor project, dose response (AID 652040).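 Further: potency for signal decrease marking cytotoxic or nonspecific inhibition.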 Format: functional, cell-based.
A short description of test [19]: HIV-1 AD8 envelope cell-cell fusion blockers – cherry-pick, dose response (AID 652062).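 Further: luciferase signal from cell-cell fusion driven by HIV-1 clade B AD8 Env; potency is for inhibitors of fusion seen as a drop in luminescence.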 In kind it is functional, cell-based.

T1 sequence (P0AE70 whole entry): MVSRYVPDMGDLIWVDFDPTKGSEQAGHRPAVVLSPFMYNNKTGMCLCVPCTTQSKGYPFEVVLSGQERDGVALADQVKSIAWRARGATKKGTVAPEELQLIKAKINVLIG
Sequence of G-protein coupled receptor 55 (Q9Y2T6 whole entry): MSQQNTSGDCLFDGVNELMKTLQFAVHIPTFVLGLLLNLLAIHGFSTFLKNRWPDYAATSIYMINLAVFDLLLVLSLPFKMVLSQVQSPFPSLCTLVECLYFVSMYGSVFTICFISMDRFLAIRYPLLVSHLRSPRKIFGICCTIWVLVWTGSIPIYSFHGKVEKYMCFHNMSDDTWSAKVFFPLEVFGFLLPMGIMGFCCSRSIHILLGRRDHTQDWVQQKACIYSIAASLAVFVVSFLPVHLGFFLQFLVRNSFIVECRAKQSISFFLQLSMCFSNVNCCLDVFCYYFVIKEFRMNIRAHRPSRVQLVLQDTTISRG

As to `Cc1cc(C)c(NC(=O)Cn2nnc(C(=O)NCc3ccc4c(c3)OCO4)c2N)c(C)c1`, the EC50 in test [1] and in test [2] was > 99 µM (inactive) in each case.
Turning to `Cc1ccccc1OCc1n(CC(=O)OC2CC(C)CCC2C(C)C)c2ccccc2[n+]1C.[Cl-]` (centres undefined), the EC50 is > 160 µM (inactive) in test [3]; 693 nM (active) in test [6]; 684 nM (active) and 429 nM (active) in test [7]; > 32 µM (inactive) in [8]. Further, the 50% inhibitory concentration (IC50) in [4] was 1.52 µM (active); in [5], 1.95 µM (active); in [9], > 20 µM (inactive); in test [12], 29.5 µM (active). The half-maximal activity concentration (AC50) in [10] is 7.51 µM (active); in test [13] it was 3.39 µM (active); in [14], 19 µM (active); in [15], 6.17 µM (active); in test [16] it was 4.93 µM (active); in [17], 8.94 µM (active). For the same compound, the concentration at half-maximal activity (AC50) was 9.17 µM (active) in [18] and 7 µM (active) in test [19]. Moreover, the “Absolute IC50 (XBP1)” value in [11] is 10 µM.
